Assay results published in US4273923A, “Process for preparing aminoglycoside derivatives” (Shionogi & Co., Ltd., priority 1979, dated 1981).
In brackets after ≈: the same amount, converted by molar mass.

Tested on: Staphylococcus epidermidis TB-172
Experiment: MIC by agar dilution method
Format: cell-based
Settings: TB172, tobramycin resistant strain, innoculum size 10^4 CFU/ml, 37° C., 18 to 20 hours, read-out: Minimum Inhibitory Concentration (MIC)

| SMILES | MIC [µg/mL] |
| --- | --- |
| NC[C@H]1O[C@H](O[C@H]2[C@H](O)[C@@H](O[C@H]3O[C@H](CO)[C@@H](O)[C@H](N)[C@H]3O)[C@H](N)C[C@@H]2N)[C@H](N)C[C@@H]1O [TOB, tobramycin] | 25 (≈ 53.5 µM) |
| NCC1=CC[C@@H](N)[C@@H](O[C@H]2[C@H](O)[C@@H](O[C@H]3O[C@H](CO)[C@@H](O)[C@H](N)[C@H]3O)[C@H](N)C[C@@H]2N)O1 [[A], O-[3-amino-3-deoxy-α-D-glucopyranosyl-(1→6)]-O-[2,6-diamino-2,3,4,6-tetradeoxy-α-D-glycero-hex-4-enopyranosyl-(1→4)]-2-deoxy-D-streptamine] | 0.1 (≈ 0.222 µM) |
